This passage reports IC50 results from patent US11420969B2 (Exonate Limited, priority 2017, dated 2022).

Structures are written as SMILES.

For one test, the target named is T1, CYP1A2 (Homo sapiens, UniProt P05177).
T1 construct: from tissue; host or cells: human liver microsomes
T1 sequence (P05177 1-516): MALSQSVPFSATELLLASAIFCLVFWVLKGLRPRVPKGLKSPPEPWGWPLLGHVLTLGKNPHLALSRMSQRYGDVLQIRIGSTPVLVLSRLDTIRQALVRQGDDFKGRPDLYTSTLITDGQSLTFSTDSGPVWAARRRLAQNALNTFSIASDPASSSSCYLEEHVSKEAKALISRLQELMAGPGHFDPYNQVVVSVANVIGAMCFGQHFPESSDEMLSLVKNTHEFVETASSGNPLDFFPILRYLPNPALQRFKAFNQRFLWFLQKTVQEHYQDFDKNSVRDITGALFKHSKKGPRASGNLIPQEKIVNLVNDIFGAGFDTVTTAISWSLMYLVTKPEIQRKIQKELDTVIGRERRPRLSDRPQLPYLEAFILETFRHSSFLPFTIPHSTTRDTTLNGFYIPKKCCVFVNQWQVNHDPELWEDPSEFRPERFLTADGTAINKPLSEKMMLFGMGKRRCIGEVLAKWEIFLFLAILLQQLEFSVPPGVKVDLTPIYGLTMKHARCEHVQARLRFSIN
Briefly: CYP inhibition assay, human liver microsomes, substrate tacrine. The format is in vitro ADME. Particulars: human liver microsomes, 10 min incubation, LC-MS/MS; read-out: CYP Inhibition Activity (IC50/nM) CYP1A2. Here is the method: (§1) 2 μL of test compound/Positive Inhibitor working solutions is then added to the reaction plate (2 μL/well). For control, 2 μL of Acetonitrile (ACN) containing DMSO (without inhibitor) is added to the reaction plate. 20 μL of substrate pool is added to all the wells of the reaction plate. The samples are mixed in a vortexer and pre-incubated at 37° C. for 20 min. The NADPH solution is pre-warmed at 37° C. for 5 min. 20 μL of pre-warmed NADPH solution is added to the reaction plate and then incubated at 37° C. for 10 min. The reaction is terminated by adding cold ACN (200 μL/well) to the reaction mixture and centrifuging at 4,000 rpm for 20 minutes. After centrifugation, supernatant is separated and analyzed by LC-MS/MS.
(§2) % inhibition and IC50 are calculated using Graphpad Prism software.

The next test concerns the target T2, CYP2C19 (Homo sapiens, UniProt P33261).
T2 construct: from tissue; host or cells: human liver microsomes
In words: CYP inhibition assay, human liver microsomes, substrate S-mephenytoin. The following applies: human liver microsomes, 10 min incubation, LC-MS/MS; read-out: CYP Inhibition Activity (IC50/nM) CYP2C19. The format is in vitro ADME. Here is the method: as §1, §2

In a further test the target is T3, CYP2D6 (Homo sapiens, UniProt P10635).
T3 construct: from tissue; host or cells: human liver microsomes
T3 sequence (P10635 whole entry): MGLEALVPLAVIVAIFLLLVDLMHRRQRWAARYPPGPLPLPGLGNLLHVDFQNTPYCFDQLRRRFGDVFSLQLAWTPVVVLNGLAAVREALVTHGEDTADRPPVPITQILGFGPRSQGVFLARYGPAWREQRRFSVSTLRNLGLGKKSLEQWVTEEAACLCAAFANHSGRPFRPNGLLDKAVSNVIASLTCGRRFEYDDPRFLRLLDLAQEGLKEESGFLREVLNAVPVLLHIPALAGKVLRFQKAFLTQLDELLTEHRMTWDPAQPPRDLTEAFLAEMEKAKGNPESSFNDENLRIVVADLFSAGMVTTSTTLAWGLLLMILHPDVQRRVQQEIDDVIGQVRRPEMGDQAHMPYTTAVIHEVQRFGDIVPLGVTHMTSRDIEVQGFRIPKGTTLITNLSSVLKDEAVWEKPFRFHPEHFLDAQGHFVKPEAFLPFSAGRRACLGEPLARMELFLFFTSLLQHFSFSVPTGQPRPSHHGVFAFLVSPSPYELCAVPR
In words: biochemical. The format is in vitro ADME. Here is the method:
158 μL of Human Liver Microsomes working stock solution is added to a reaction plate (0.253 mg/mL, 158 μL/well). 2 μL of test compound/Positive Inhibitor working solutions is then added to the reaction plate (2 μL/well). For control, 2 μL of Acetonitrile (ACN) containing DMSO (without inhibitor) is added to the reaction plate. 20 μL of substrate pool is added to all the wells of the reaction plate. The samples are mixed in a vortexer and pre-incubated at 37° C. for 20 min. The NADPH solution is pre-warmed at 37° C. for 5 min. 20 μL of pre-warmed NADPH solution is added to the reaction plate and then incubated at 37° C. for 10 min. The reaction is terminated by adding cold ACN (200 μL/well) to the reaction mixture and centrifuging at 4,000 rpm for 20 minutes. After centrifugation, supernatant is separated and analyzed by LC-MS/MS.
as §2

The target of another test is T4, CYP2C9 (Homo sapiens, UniProt P11712).
T4 construct: from tissue; host or cells: human liver microsomes
T4 sequence (P11712 whole entry): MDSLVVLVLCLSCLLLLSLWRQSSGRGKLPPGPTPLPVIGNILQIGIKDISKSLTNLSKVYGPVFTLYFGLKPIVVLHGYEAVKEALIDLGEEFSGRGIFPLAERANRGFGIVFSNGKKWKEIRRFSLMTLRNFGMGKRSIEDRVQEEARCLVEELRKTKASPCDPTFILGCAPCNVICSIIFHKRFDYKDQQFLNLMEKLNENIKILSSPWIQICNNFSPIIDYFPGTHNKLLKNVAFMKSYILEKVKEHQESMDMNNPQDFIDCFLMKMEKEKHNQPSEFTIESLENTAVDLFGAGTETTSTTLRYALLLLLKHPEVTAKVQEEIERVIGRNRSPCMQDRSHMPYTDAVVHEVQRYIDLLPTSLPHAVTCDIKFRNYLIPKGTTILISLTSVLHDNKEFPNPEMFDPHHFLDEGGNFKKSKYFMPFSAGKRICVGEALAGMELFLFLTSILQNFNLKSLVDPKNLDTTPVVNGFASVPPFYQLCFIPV
Briefly: CYP inhibition assay, human liver microsomes, substrate diclofenac. The format is in vitro ADME. Particulars: human liver microsomes, 10 min incubation, LC-MS/MS; read-out: CYP Inhibition Activity (IC50/nM) CYP2C9. Here is the method:
as §1, §2
(In general: Microsomes from liver hold many membrane-bound enzymes, among them those of drug oxidation.)

The target in a further test is T5, CYP3A4 (Homo sapiens, UniProt P08684).
T5 construct: from tissue; host or cells: human liver microsomes
T5 sequence (P08684 whole entry): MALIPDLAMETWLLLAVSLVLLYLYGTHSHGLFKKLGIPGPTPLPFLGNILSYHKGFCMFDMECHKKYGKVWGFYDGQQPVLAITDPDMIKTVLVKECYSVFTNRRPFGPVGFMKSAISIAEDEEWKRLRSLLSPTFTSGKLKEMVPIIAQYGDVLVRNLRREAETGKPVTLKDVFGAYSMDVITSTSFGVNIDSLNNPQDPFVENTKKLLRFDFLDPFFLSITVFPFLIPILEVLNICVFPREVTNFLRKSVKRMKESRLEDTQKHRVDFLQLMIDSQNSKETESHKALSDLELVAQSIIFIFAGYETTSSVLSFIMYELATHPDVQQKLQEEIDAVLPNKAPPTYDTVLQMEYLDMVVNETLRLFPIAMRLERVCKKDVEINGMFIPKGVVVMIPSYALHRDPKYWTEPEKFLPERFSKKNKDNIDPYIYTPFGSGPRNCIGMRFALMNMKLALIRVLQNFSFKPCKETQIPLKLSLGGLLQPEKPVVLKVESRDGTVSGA
Briefly: CYP inhibition assay, human liver microsomes, substrate midazolam. Particulars: human liver microsomes, 10 min incubation, LC-MS/MS; read-out: CYP Inhibition Activity (IC50/nM) CYP3A4. The format is in vitro ADME. Here is the method:
as §1, §2

For a further test, the target named is SRPK1 (Homo sapiens, UniProt Q96SB4). Briefly: In vitro SRPK1 assay (Kinase-Glo). The format is biochemical. For orientation: Kinase-Glo reads ATP consumption through a luciferase reaction.
Sequence of SRPK1 (Q96SB4 whole entry, species assumed): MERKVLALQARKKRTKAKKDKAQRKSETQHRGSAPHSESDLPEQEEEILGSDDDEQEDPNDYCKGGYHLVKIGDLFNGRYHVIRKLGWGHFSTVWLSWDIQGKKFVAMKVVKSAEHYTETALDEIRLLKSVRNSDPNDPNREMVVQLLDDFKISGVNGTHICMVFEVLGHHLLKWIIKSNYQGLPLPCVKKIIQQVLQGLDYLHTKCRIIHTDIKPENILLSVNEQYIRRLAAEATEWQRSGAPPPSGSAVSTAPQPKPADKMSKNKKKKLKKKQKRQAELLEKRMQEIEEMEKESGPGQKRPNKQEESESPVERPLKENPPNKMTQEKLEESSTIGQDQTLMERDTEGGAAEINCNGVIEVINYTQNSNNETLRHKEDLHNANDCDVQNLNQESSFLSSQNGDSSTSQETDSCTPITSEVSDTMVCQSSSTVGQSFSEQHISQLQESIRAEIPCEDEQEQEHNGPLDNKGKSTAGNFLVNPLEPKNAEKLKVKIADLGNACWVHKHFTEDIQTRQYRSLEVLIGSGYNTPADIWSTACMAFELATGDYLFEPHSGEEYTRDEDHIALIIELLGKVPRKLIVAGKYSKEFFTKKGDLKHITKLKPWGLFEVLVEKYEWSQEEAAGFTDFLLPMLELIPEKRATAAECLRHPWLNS

T2 sequence (P33261 whole entry): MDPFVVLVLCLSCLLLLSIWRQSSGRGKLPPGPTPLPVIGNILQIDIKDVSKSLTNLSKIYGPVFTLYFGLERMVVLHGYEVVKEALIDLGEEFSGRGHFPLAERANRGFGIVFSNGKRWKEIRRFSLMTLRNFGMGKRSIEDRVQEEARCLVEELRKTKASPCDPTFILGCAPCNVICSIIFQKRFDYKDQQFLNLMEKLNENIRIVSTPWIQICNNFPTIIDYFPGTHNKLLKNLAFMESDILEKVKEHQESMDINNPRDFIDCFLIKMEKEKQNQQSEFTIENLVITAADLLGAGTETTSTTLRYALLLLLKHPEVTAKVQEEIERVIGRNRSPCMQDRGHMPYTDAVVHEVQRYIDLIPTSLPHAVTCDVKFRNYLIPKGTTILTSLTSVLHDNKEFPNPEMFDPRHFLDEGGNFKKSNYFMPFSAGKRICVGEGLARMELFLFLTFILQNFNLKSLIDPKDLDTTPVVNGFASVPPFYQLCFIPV

For `Cc1ccc(N2CCC(C)(C)CC2)c(NC(=O)c2ccc(C3CCOCC3)o2)c1` [Example 63, N-(2-(4,4-dimethylpiperidin-1-yl)-5-methylphenyl)-5-(tetrahydro-2H-pyran-4-yl)furan-2-carboxamide], the IC50 is greater than 30000 nM on CYP1A2; greater than 30000 nM at CYP2C19; greater than 30 µM against CYP2D6; 14200 nM at CYP2C9; greater than 30000 nM on CYP3A4; 25 nM against SRPK1.
With `CNCC1(C)CCN(c2ccc(C(F)(F)F)cc2NC(=O)c2ccc(C3CCOCC3)o2)CC1` [Example 82, N-(2-(4-methyl-4-((methylamino)methyl)-piperidin-1-yl)-5-(trifluoromethyl)phenyl)-5-(tetrahydro-2H-pyran-4-yl)furan-2-carboxamide], the IC50 at CYP1A2 is greater than 30000 nM; on CYP2C19, 29200 nM; at CYP2D6 it was 2.8 µM; on CYP2C9, greater than 30000 nM; at CYP3A4, 6200 nM; against SRPK1, 35 nM.
Turning to `C[C@]1(O)CCN(c2ccc(C(F)(F)F)cc2NC(=O)c2ccc(-c3ccncc3)o2)C1` [Example 53, (S)-N-(2-(3-hydroxy-3-methylpyrrolidin-1-yl)-5-(trifluoromethyl)phenyl)-5-(pyridin-4-yl)furan-2-carboxamide], the IC50 on CYP1A2 came out at 2810 nM; at CYP2C19, 1190 nM; at CYP2D6, 0.01 µM; on CYP2C9, 450 nM; on CYP3A4 it was 1330 nM; on SRPK1, 169 nM.
As for `CN(C)C(=O)C1(C)CCN(c2ccc(C(F)(F)F)cc2NC(=O)c2ccc(-c3ccncc3)o2)CC1` [Example 74, N,N,4-trimethyl-1-(2-(5-(pyridin-4-yl)furan-2-carboxamido)-4-(trifluoromethyl)phenyl)-piperidine-4-carboxamide], the IC50 was greater than 30000 nM on CYP1A2; 2890 nM at CYP2C19; 1.55 µM against CYP2D6; 1130 nM on CYP2C9; 720 nM at CYP3A4; 2.9 nM on SRPK1.
Consider `CC1(O)CCCN(c2ccc(C(F)(F)F)cc2NC(=O)c2ccc(-c3ccncc3)o2)CC1` (racemic) [Example 37, N-(2-(4-hydroxy-4-methylazepan-1-yl)-5-(trifluoromethyl)phenyl)-5-(pyridin-4-yl)furan-2-carboxamide], for which the IC50 at CYP1A2 turned out to be 24100 nM; on CYP2C19, 1230 nM; against CYP2D6, 0.24 µM; at CYP2C9 it was 610 nM; at CYP3A4 it was 960 nM; against SRPK1, 17 nM.
In the case of `CNC(=O)C1(C)CCN(c2ccc(C(F)(F)F)cc2NC(=O)c2ccc(-c3ccncc3)o2)CC1` [Example 73, N,4-dimethyl-1-(2-(5-(pyridin-4-yl)furan-2-carboxamido)-4-(trifluoromethyl)phenyl)-piperidine-4-carboxamide], the IC50 at CYP1A2 is greater than 30000 nM; on CYP2C19, 1870 nM; on CYP2D6, 1.61 µM; at CYP2C9 it was 690 nM; at CYP3A4, 470 nM; at SRPK1, 5.6 nM.
In the case of `O=C(Nc1cc(C(F)(F)F)ccc1N1CCCC(O)CC1)c1ccc(-c2ccncc2)o1` (racemic) [Example 44, N-(2-(4-hydroxyazepan-1-yl)-5-(trifluoromethyl)-phenyl)-5-(pyridin-4-yl)furan-2-carboxamide], the IC50 at CYP1A2 was found to be 24300 nM; on CYP2C19, 8570 nM; on CYP2D6 it was 25.3 µM; on CYP2C9, 11200 nM; on CYP3A4, 26300 nM; on SRPK1 it was 1.5 nM.
For `CC1(C)CCN(c2ccc(Cl)cc2NC(=O)c2ccc(C3CCOCC3)o2)CC1` [Example 65, N-(5-chloro-2-(4,4-dimethylpiperidin-1-yl)phenyl)-5-(tetrahydro-2H-pyran-4-yl)furan-2-carboxamide], the IC50 is greater than 30000 nM at CYP1A2; greater than 30000 nM at CYP2C19; greater than 30 µM against CYP2D6; 14000 nM at CYP2C9; greater than 30000 nM on CYP3A4; 9.8 nM against SRPK1.
On to `Cc1ccc(N2CCC(C)(O)CC2)c(NC(=O)c2ccc(C3CCOCC3)o2)c1` [Example 13, N-(2-(4-hydroxy-4-methylpiperidin-1-yl)-5-methylphenyl)-5-(tetrahydro-2H-pyran-4-yl)furan-2-carboxamide], for which the IC50 on CYP1A2 is greater than 30000 nM; at CYP2C19, 15100 nM; against CYP2D6 it was greater than 30 µM; at CYP2C9, 7600 nM; at CYP3A4, 23200 nM; at SRPK1, 17.4 nM.
In the case of `CN(C)C(=O)C1(C)CCN(c2ccc(C3CC3)cc2NC(=O)c2ccc(C3CCOCC3)o2)CC1` [Example 86, 1-(4-cyclopropyl-2-(5-(tetrahydro-2H-pyran-4-yl)furan-2-carboxamido)phenyl)-N,N,4-trimethyl-piperidine-4-carboxamide], the IC50 was greater than 30000 nM at CYP1A2; 4100 nM at CYP2C19; 19.2 µM at CYP2D6; 200 nM at CYP2C9; 1100 nM at CYP3A4; 9 nM against SRPK1.
As for `O=C(Nc1cc(C(F)(F)F)ccc1N1CCC(O)CC1)c1ccc(C2CCOCC2)o1` [Example 33, N-(2-(4-hydroxypiperidin-1-yl)-5-(trifluoromethyl)-phenyl)-5-(tetrahydro-2H-pyran-4-yl)furan-2-carboxamide], the IC50 on CYP1A2 was 10000 nM; on CYP2C19, 8100 nM; against CYP2D6, 15.2 µM; on CYP2C9, 7600 nM; on CYP3A4, greater than 30000 nM; against SRPK1 it was 0.9 nM.
With `O=C(Nc1cc(Cl)ccc1N1CCC(O)CC1)c1ccc(C2CCOCC2)o1` [Example 62, N-(5-chloro-2-(4-hydroxypiperidin-1-yl)phenyl)-5-(tetrahydro-2H-pyran-4-yl)furan-2-carboxamide], the IC50 is greater than 30000 nM on CYP1A2; 12200 nM on CYP2C19; 24.8 µM against CYP2D6; 11000 nM on CYP2C9; greater than 30000 nM on CYP3A4; 1.5 nM at SRPK1.
Consider `O=C(Nc1cc(C2CC2)ccc1N1CCCC(O)CC1)c1ccc(C2CCOCC2)o1` (racemic) [Example 49, N-(5-cyclopropyl-2-(4-hydroxyazepan-1-yl)phenyl)-5-(tetrahydro-2H-pyran-4-yl)furan-2-carboxamide], for which the IC50 was 7340 nM at CYP1A2; 6730 nM at CYP2C19; 21.2 µM against CYP2D6; 7250 nM on CYP2C9; 17200 nM on CYP3A4; 5.2 nM against SRPK1.
Regarding `CC1CCN(c2ccc(C(F)(F)F)cc2NC(=O)c2ccc(C3CCOCC3)o2)CC1` [Example 35, N-(2-(4-methylpiperidin-1-yl)-5-(trifluoromethyl)-phenyl)-5-(tetrahydro-2H-pyran-4-yl)furan-2-carboxamide], the IC50 is 4700 nM at CYP1A2; 27800 nM on CYP2C19; greater than 30 µM on CYP2D6; greater than 30000 nM on CYP2C9; greater than 30000 nM at CYP3A4; 56.1 nM against SRPK1.
`Cc1ccc(N2CCC(C)(CO)CC2)c(NC(=O)c2ccc(C3CCOCC3)o2)c1` [Example 66, N-(2-(4-(hydroxymethyl)-4-methylpiperidin-1-yl)-5-methylphenyl)-5-(tetrahydro-2H-pyran-4-yl)furan-2-carboxamide]: the IC50 at CYP1A2 was greater than 30000 nM; at CYP2C19 it was 11400 nM; against CYP2D6, greater than 30 µM; at CYP2C9, 2000 nM; on CYP3A4, greater than 30000 nM; at SRPK1 it was 10 nM.
